From patent EP4635500A1, “THERAPEUTIC AGENT FOR BACTERIAL INFECTION” (Sumitomo Pharma Co., Ltd., priority 2022, dated 2024)
Converted amounts (≈) assume the structure as drawn. Where two headings read alike, the source gives them in different places.

Assays:
[1] = test system: Enterobacterales; assay: MIC, broth microdilution, CDC/FDA Antibiotic Resistance Isolate Bank (Example 7, Tables 8, 11, 12); type: cell-based; conditions: read-out: MIC
[2] = test system: A. baumannii; assay: MIC, broth microdilution, CDC/FDA Antibiotic Resistance Isolate Bank (Example 7, Tables 9, 13, 14); type: cell-based, Acinetobacter baumannii; conditions: for MIC: read-out: MIC
[3] = MIC distribution, metallo-β-lactamase-producing A. baumannii, inhibitor µg/mL in parentheses

**Q.** Which MIC ([1]; Klebsiella pneumoniae, KUB No. 5760, AR Bank # 364) does the source give for O=C(O)c1cn(C2CC2)c2cc(N3CCNCC3)c(F)cc2c1=O [Ciprofloxacin, ciprofloxacin] here?
**A.** The MIC was over 64 µg/mL.

**Q.** What about the MIC ([1]; Klebsiella pneumoniae, Klebsiella pneumoniae KUB No. 5784, AR Bank #438) of the same compound?
**A.** The MIC was over 64 µg/mL.

**Q.** What about the MIC ([1]; Klebsiella pneumoniae, Klebsiella pneumoniae KUB No. 5797, AR Bank #453) of the same compound?
**A.** Its MIC is over 64 µg/mL.

**Q.** What about the MIC ([1]; Klebsiella pneumoniae, Klebsiella pneumoniae KUB No. 5809, AR Bank #504) of the same compound?
**A.** The MIC was 2 µg/mL (≈ 6.04 µM).

**Q.** What about the MIC ([1]; Klebsiella pneumoniae, Klebsiella pneumoniae KUB No. 5810, AR Bank #505) of the same compound?
**A.** The MIC was 0.5 µg/mL (≈ 1.51 µM).

**Q.** What about the MIC ([1]; Klebsiella pneumoniae, Klebsiella pneumoniae KUB No. 5811, AR Bank #506) of the same compound?
**A.** Its MIC is 2 µg/mL (≈ 6.04 µM).

**Q.** What about the MIC ([1]; Klebsiella pneumoniae, Klebsiella pneumoniae KUB No. 5812, AR Bank #507) of the same compound?
**A.** Its MIC is over 64 µg/mL.

**Q.** What about the MIC ([1]; Klebsiella pneumoniae, Klebsiella pneumoniae KUB No. 5828, AR Bank #523) of the same compound?
**A.** Its MIC is 4 µg/mL (≈ 12.1 µM).

**Q.** And the MIC ([1]; Klebsiella pneumoniae, Klebsiella pneumoniae KUB No. 5830, AR Bank #525)?
**A.** Its MIC is over 64 µg/mL.

**Q.** And the MIC ([1]; Kluyvera ascorbata, KUB No. 5641, AR Bank # 144)?
**A.** Its MIC is 1 µg/mL (≈ 3.02 µM).

**Q.** What about the MIC ([1]; Morganella morganii, KUB No. 5554, AR Bank# 57) of the same compound?
**A.** Its MIC is over 64 µg/mL.

**Q.** What about the MIC ([1]; Morganella morganii, Morganella morganii KUB No. 5824, AR Bank #519) of the same compound?
**A.** Its MIC is 0.06 µg/mL (≈ 0.181 µM).

**Q.** What about the MIC ([1]; Proteus mirabilis, KUB No. 5652, AR Bank # 155) of the same compound?
**A.** Its MIC is over 64 µg/mL.

**Q.** And the MIC ([1]; Proteus mirabilis, KUB No. 5653, AR Bank # 156)?
**A.** The MIC was 4 µg/mL (≈ 12.1 µM).

**Q.** And the MIC ([1]; Proteus mirabilis, KUB No. 5656, AR Bank # 159)?
**A.** Its MIC is 1 µg/mL (≈ 3.02 µM).

**Q.** What about the MIC ([1]; Proteus mirabilis, KUB No. 5775, AR Bank # 379) of the same compound?
**A.** Its MIC is 4 µg/mL (≈ 12.1 µM).

**Q.** And the MIC ([1]; Providencia rettgeri, KUB No. 5579, AR Bank # 82)?
**A.** The MIC was 0.06 µg/mL (≈ 0.181 µM).

**Q.** And the MIC ([1]; Serratia marcescens, KUB No. 5588, AR Bank # 91)?
**A.** The MIC was 0.06 µg/mL (≈ 0.181 µM).

**Q.** What about the MIC ([1]; Serratia marcescens, KUB No. 5596, AR Bank # 99) of the same compound?
**A.** Its MIC is 0.06 µg/mL (≈ 0.181 µM).

**Q.** And the MIC ([1]; Serratia marcescens, KUB No. 5618, AR Bank # 121)?
**A.** The MIC was 0.06 µg/mL (≈ 0.181 µM).

**Q.** And the MIC ([1]; Serratia marcescens, KUB No. 5619, AR Bank # 122)?
**A.** The MIC was 0.06 µg/mL (≈ 0.181 µM).

**Q.** And the MIC ([1]; Serratia marcescens, KUB No. 5620, AR Bank # 123)?
**A.** The MIC was 0.06 µg/mL (≈ 0.181 µM).

**Q.** What about the MIC ([1]; Serratia marcescens, KUB No. 5621, AR Bank # 124) of the same compound?
**A.** The MIC was 0.06 µg/mL (≈ 0.181 µM).

**Q.** What about the MIC ([1]; Serratia marcescens, KUB No. 5627, AR Bank # 130) of the same compound?
**A.** The MIC was 0.06 µg/mL (≈ 0.181 µM).

**Q.** What about the MIC ([1]; Serratia marcescens, KUB No. 5628, AR Bank # 131) of the same compound?
**A.** The MIC was 0.06 µg/mL (≈ 0.181 µM).

**Q.** What about the MIC ([1]; Serratia marcescens, Serratia marcescens KUB No. 5822, AR Bank #517) of the same compound?
**A.** The MIC was 1 µg/mL (≈ 3.02 µM).

**Q.** And the MIC ([1]; Serratia marcescens, Serratia marcescens KUB No. 5825, AR Bank #520)?
**A.** The MIC was 1 µg/mL (≈ 3.02 µM).

**Q.** What about the MIC ([2]; Acinetobacter baumannii, A. baumannii KUB No. 5567, AR Bank #70, OXA-58, OXA-100) of the same compound?
**A.** The MIC was 8 µg/mL (≈ 24.1 µM).

**Q.** What about the MIC ([2]; Acinetobacter baumannii, A. baumannii KUB No. 5575, AR Bank #78, OXA-71) of the same compound?
**A.** Its MIC is over 64 µg/mL.

**Q.** What about the MIC ([2]; Acinetobacter baumannii, A. baumannii KUB No. 5598, AR Bank #101, OXA-24, OXA-65) of the same compound?
**A.** Its MIC is over 64 µg/mL.

**Q.** And the MIC ([2]; Acinetobacter baumannii, A. baumannii KUB No. 5706, AR Bank #273, OXA-23, OXA-66)?
**A.** Its MIC is over 64 µg/mL.

**Q.** And the MIC ([2]; Acinetobacter baumannii, A. baumannii KUB No. 5707, AR Bank #274, OXA-66, OXA-72)?
**A.** The MIC was over 64 µg/mL.

**Q.** And the MIC ([2]; Acinetobacter baumannii, A. baumannii KUB No. 5710, AR Bank #277, OXA-24, OXA-65)?
**A.** Its MIC is over 64 µg/mL.

**Q.** What about the MIC ([2]; Acinetobacter baumannii, A. baumannii KUB No. 5713, AR Bank #280, OXA-66) of the same compound?
**A.** Its MIC is over 64 µg/mL.

**Q.** What about the MIC ([2]; Acinetobacter baumannii, A. baumannii KUB No. 5718, AR Bank #285, OXA-24, OXA-65) of the same compound?
**A.** The MIC was over 64 µg/mL.

**Q.** And the MIC ([2]; Acinetobacter baumannii, KUB No. 5721, AR Bank #288)?
**A.** The MIC was over 64 µg/mL.

**Q.** What about the MIC ([2]; Acinetobacter baumannii, KUB No. 5722, AR Bank #259) of the same compound?
**A.** Its MIC is over 64 µg/mL.

**Q.** And the MIC ([2]; Acinetobacter baumannii, KUB No. 5724, AR Bank #291)?
**A.** Its MIC is over 64 µg/mL.

**Q.** What about the MIC ([2]; Acinetobacter baumannii, KUB No. 5727, AR Bank #294) of the same compound?
**A.** The MIC was over 64 µg/mL.

**Q.** What about the MIC ([2]; Acinetobacter baumannii, KUB No. 5728, AR Bank #295) of the same compound?
**A.** Its MIC is over 64 µg/mL.

**Q.** And the MIC ([2]; Acinetobacter baumannii, KUB No. 5729, AR Bank #296)?
**A.** The MIC was over 64 µg/mL.

**Q.** What about the MIC ([2]; Acinetobacter baumannii, KUB No. 5730, AR Bank #297) of the same compound?
**A.** The MIC was over 64 µg/mL.

**Q.** And the MIC ([2]; Acinetobacter baumannii, KUB No. 5732, AR Bank #299)?
**A.** The MIC was over 64 µg/mL.

**Q.** What about the MIC ([2]; Acinetobacter baumannii, KUB No. 5733, AR Bank #300) of the same compound?
**A.** Its MIC is over 64 µg/mL.

**Q.** What about the MIC ([2]; Acinetobacter baumannii, KUB No. 5734, AR Bank #301) of the same compound?
**A.** The MIC was over 64 µg/mL.

**Q.** What about the MIC ([2]; Acinetobacter baumannii, KUB No. 5735, AR Bank #302) of the same compound?
**A.** Its MIC is over 64 µg/mL.

**Q.** And the MIC ([2]; Acinetobacter baumannii, KUB No. 5737, AR Bank #304)?
**A.** Its MIC is over 64 µg/mL.

**Q.** What about the MIC ([2]; Acinetobacter baumannii, KUB No. 5738, AR Bank #305) of the same compound?
**A.** Its MIC is over 64 µg/mL.

**Q.** And the MIC ([2]; Acinetobacter baumannii, KUB No. 5739, AR Bank #306)?
**A.** Its MIC is over 64 µg/mL.

**Q.** And the MIC ([2]; Acinetobacter baumannii, KUB No. 5741, AR Bank #308)?
**A.** The MIC was over 64 µg/mL.

**Q.** And the MIC ([2]; Acinetobacter baumannii, KUB No. 5742, AR Bank #309)?
**A.** Its MIC is over 64 µg/mL.

**Q.** What about the MIC ([2]; Acinetobacter baumannii, KUB No. 5743, AR Bank #310) of the same compound?
**A.** The MIC was over 64 µg/mL.

**Q.** What about the MIC ([2]; Acinetobacter baumannii, KUB No. 5745, AR Bank #312) of the same compound?
**A.** The MIC was 8 µg/mL (≈ 24.1 µM).

**Q.** What about the MIC80 ([2]; Acinetobacter baumannii, 55 isolates of A. baumannii, read-out: MIC80) of the same compound?
**A.** Its MIC80 is over 64 µg/mL.

**Q.** What about the MIC90 ([2]; Acinetobacter baumannii, 55 isolates of A. baumannii, read-out: MIC90) of the same compound?
**A.** Its MIC90 is over 64 µg/mL.

**Q.** What about the “Number of isolates at MIC 16 µg/mL” value [2, 3] of the same compound?
**A.** The value was 1.

**Q.** What about the “Number of isolates at MIC 32 µg/mL” value [2, 3] of the same compound?
**A.** Its value is 1.

**Q.** And the “Number of isolates at MIC >32 µg/mL” value [2, 3]?
**A.** The value was 1.

**Q.** And the “Number of isolates at MIC >64 µg/mL” value [2, 3]?
**A.** Its value is 1.
